According to patent publication US20040253665A1, “Novel peptide-producing enzyme, microbe producing the enzyme and method for dipeptide synthesis using them” (AJINOMOTO CO., INC., priority 2002, published 2004):
Non-standard residues stand in square brackets, D forms with d. Residues, ends and D or L forms follow the SMILES beside them.

test system: enzyme (SP-Sepharose HP fraction) derived from Sphingobacterium sp. strain FERM BP-8124; test: not given; assay type: biochemical; conditions: Table 15-1; carboxy component 100 mM, amine component 150 mM, 0.33 units enzyme, pH 9.0, 25° C., 1.5 hours
Procedure: Substrate specificity was examined for enzyme derived from Sphingobacterium sp. strain FERM BP-8124 (Depositary institution: National Institute for Advanced Industrial Science and Technology, International Patent Organism Depositary, Address of depositary institution: Central. 6, 1-1-1 Higashi, Tsukuba City, Ibaraki Prefecture, Japan, International deposit date: Jul. 22, 2002). 100 μl of 100 mM borate buffer (pH 9.0) containing the various carboxy components at a final concentration of 100 mM and the various amine components at a final concentration of 150 mM shown in Tables 15-1 to 15-4, the SP-Sepharose HP fraction enzyme purified in Example 22 (addition of 0.33 units in the reaction liquid) and 10 mM EDTA were allowed to react at 25° C. for 1.5 hours. […] In addition, hydrochlorides were used for all carboxy components.
Substrate specificity with respect to oligopeptide production was examined for enzyme derived from Sphingobacterium sp. strain FERM BP-8124 (Depositary institution: National Institute for Advanced Industrial Science and Technology,.International Patent Organism Depositary, Address of depositary institution: Chuo Dai-6, 1-1 Higashi 1-Chome, Tsukuba-shi, Ibaraki-ken, Japan, International deposit date: Jul. 22, 2002). A 100 μl aliquot of 100 mM borate buffer (pH 9.0) containing the various carboxy components at a final concentration of 100 mM and the various amine components at a final concentration of 150 mM shown in Table 16, the SP-Sepharose HP fraction enzyme purified in Example 22 (addition of 0.33 units in the reaction liquid) and 10 mM EDTA were allowed to react for 1.5 hours at 25° C. Furthermore, hydrochloride salts were used for all carboxy components.

| Produced peptide | Compound |
| --- | --- |
| 11.1 mM | C[C@H](N)C(=O)N[C@@H](Cc1ccc(O)cc1)C(=O)O [L-Ala-L-Tyr] (H-Ala-Tyr-OH) |
| 10.9 mM | CC(C)[C@H](NC(=O)[C@H](C)N)C(=O)O [L-Ala-L-Val] (H-Ala-Val-OH) |
| 46.0 mM | C[C@H](N)C(=O)N[C@@H](Cc1c[nH]c2ccccc12)C(=O)O [L-Ala-L-Trp] (H-Ala-Trp-OH) |

Continued, compound first:

| Compound | Produced peptide |
| --- | --- |
| C[C@H](N)C(=O)N[C@@H](CCC(=O)O)C(=O)O [L-Ala-L-Glu] (H-Ala-Glu-OH) | 39.1 mM |
| CC[C@H](C)[C@H](NC(=O)[C@H](C)N)C(=O)O [L-Ala-L-Ile] (H-Ala-Ile-OH) | 24.7 mM |
| C[C@H](N)C(=O)N[C@H](C(=O)O)[C@@H](C)O [L-Ala-L-Thr] (H-Ala-Thr-OH) | 47.3 mM |
| C[C@H](N)C(=O)N[C@H](CO)C(=O)O [L-Ala-D-Ser] (H-Ala-[dS]-OH) | 3.3 mM |
| C[C@H](N)C(=O)N[C@@H](CC(=O)O)C(=O)O [L-Ala-L-Asp] (H-Ala-Asp-OH) | 2.3 mM |
| C[C@@H](N)C(=O)N[C@@H](CO)C(=O)O [D-Ala-L-Ser] (H-[dA]-Ser-OH) | 24.1 mM |

same assay, conditions: Table 15-2; carboxy component 100 mM, L-Gln 150 mM, 0.33 units enzyme, pH 9.0, 25° C., 1.5 hours

| Produced peptide | Compound |
| --- | --- |
| 12.9 mM | NC(=O)CC[C@H](NC(=O)[C@@H](N)CO)C(=O)O [L-Ser-L-Gln] (H-Ser-Gln-OH) |
| 6.4 mM | CC[C@H](C)[C@H](N)C(=O)N[C@@H](CCC(N)=O)C(=O)O [L-Ile-L-Gln] (H-Ile-Gln-OH) |
| 17.2 mM | NC(=O)CC[C@H](NC(=O)[C@@H](N)CCCN=C(N)N)C(=O)O [L-Arg-L-Gln] (H-Arg-Gln-OH) |
| 61.1 mM | NCC(=O)N[C@@H](CCC(N)=O)C(=O)O [Gly-L-Gln] (H-Gly-Gln-OH) |
| 0.1 mM | NC(=O)CC[C@H](NC(=O)[C@@H](N)CCC(N)=O)C(=O)O [L-Gln-L-Gln] (H-Gln-Gln-OH) |
| 36.1 mM | C[C@@H](O)[C@H](N)C(=O)N[C@@H](CCC(N)=O)C(=O)O [L-Thr-L-Gln] (H-Thr-Gln-OH) |
| 1.8 mM | NC(=O)CC[C@H](NC(=O)[C@@H]1CCCN1)C(=O)O [L-Pro-L-Gln] (H-Pro-Gln-OH) |
| 32.6 mM | CSCC[C@H](N)C(=O)N[C@@H](CCC(N)=O)C(=O)O [L-Met-L-Gln] (H-Met-Gln-OH) |

same assay, conditions: Table 15-3; carboxy component 100 mM, amine component 150 mM, 0.33 units enzyme, pH 9.0, 25° C., 1.5 hours

| Produced peptide | Compound |
| --- | --- |
| 48.2 mM | NCCCC[C@H](NC(=O)CN)C(=O)O [Gly-L-Lys] (H-Gly-Lys-OH) |
| 31.9 mM | CC(C)[C@H](N)C(=O)N[C@@H](CO)C(=O)O [L-Val-L-Ser] (H-Val-Ser-OH) |
| 5.8 mM | C[C@H](NC(=O)[C@@H](N)[C@@H](C)O)C(=O)O [L-Thr-L-Ala] (H-Thr-Ala-OH) |

test system: peptide-producing enzyme (Mono S fraction) from Empedobacter brevis strain FERM BP-8113; test: Enzyme substrate specificity (1)-(10), (13), (14); assay type: biochemical; conditions: 100 mM L-alanine methyl ester hydrochloride, L-amino acid 150 mM, pH 9.0, 25° C., 3 hours
Text: Ester specificity was examined in the case of using L-amino acid ester for the carboxy component. […] The amounts of L-Ala-L-Gln produced in this reaction are shown in Table 4 (HCl represents hydrochloride in Table 4). Peptide production was examined in the case of using L-alanine methyl ester for the carboxy component and using various L-amino acids for the amine component. […] (The “+” mark indicates those peptides for which production was confirmed but which were unable to be quantified due to the absence of a standard, while “tr” indicates a trace amount.) Peptide production was examined in the case of using various types of L-amino acid methyl esters for the carboxy component and using L-glutamine for the amine component. […] Peptide production was examined in the case of using various L-amino acid methyl esters for the carboxy component and various L-amino acids for the amine component. […] (The “tr” indicates a trace amount.) Furthermore, Tween-80 was added to the reaction system to a final concentration of 0.1% in the case of using L-Trp-OMe. (The “+” mark indicates those peptides for which production was confirmed but which were unable to be quantified due to the absence of a standard.) […] (The “tr” indicates a trace amount.) Peptide production was examined using various L-amino acid amides for the carboxy component, and various L-amino acids for the amine component. […] Peptide production was examined in the case of using various L-alanine methyl esters for the carboxy component and C-protected L-amino acids for the amine component. […] Peptide production was examined in the case of using various amino acid methyl esters for the carboxy component and methylamine for the amine component. […] Peptide production was examined in the case of using β-amino acid ester for the carboxy component or β-amino acid for the amine component. […] (The “tr” indicates a trace amount.) Oligopeptide production was examined in the case of using L-amino acid ester for the carboxy component and peptide for the amine component. […] Substrate specificity was additionally assessed using the same enzyme fraction as that used in Example 5. […] (A “+” mark indicates those for which production was confirmed but which were unable to be quantified due to the absence of a standard, while “tr” indicates a trace amount). Substrate specificity with respect to oligopeptide production was assessed using the same enzyme fraction as Example 26. […] (A “+” mark indicates those for which production was confirmed but which were unable to be quantified due to the absence of a standard, while “tr” indicates a trace amount). It should be noted that hydrochlorides were used for all of the carboxy components.

| Produced peptide | Compound |
| --- | --- |
| 17.6 mM | C[C@H](N)C(=O)N[C@@H](Cc1ccc(O)cc1)C(=O)O [L-Ala-L-Tyr] (H-Ala-Tyr-OH) |
| 20.8 mM | CC(C)[C@H](NC(=O)[C@H](C)N)C(=O)O [L-Ala-L-Val] (H-Ala-Val-OH) |
| 53.9 mM | C[C@H](N)C(=O)N[C@@H](Cc1c[nH]c2ccccc12)C(=O)O [L-Ala-L-Trp] (H-Ala-Trp-OH) |

The next lines start with the compound.

| Compound | Produced peptide |
| --- | --- |
| C[C@H](N)C(=O)N[C@@H](CCC(=O)O)C(=O)O [L-Ala-L-Glu] (H-Ala-Glu-OH) | 42.9 mM |
| CC[C@H](C)[C@H](NC(=O)[C@H](C)N)C(=O)O [L-Ala-L-Ile] (H-Ala-Ile-OH) | 33.9 mM |
| C[C@H](N)C(=O)N[C@H](C(=O)O)[C@@H](C)O [L-Ala-L-Thr] (H-Ala-Thr-OH) | 53.9 mM |
| C[C@H](N)C(=O)N[C@@H](CC(=O)O)C(=O)O [L-Ala-L-Asp] (H-Ala-Asp-OH) | 2.1 mM |

same assay, conditions: L or D amino acid methyl ester hydrochloride 100 mM, L or D amino acid 150 mM, pH 9.0, 25° C., 3 hours

| Produced peptide | Compound |
| --- | --- |
| 5.4 mM | C[C@H](N)C(=O)N[C@H](CO)C(=O)O [L-Ala-D-Ser] (H-Ala-[dS]-OH) |
| 20.3 mM | C[C@@H](N)C(=O)N[C@@H](CO)C(=O)O [D-Ala-L-Ser] (H-[dA]-Ser-OH) |

same assay, conditions: L-amino acid amide hydrochloride 100 mM as carboxy component, L-amino acid 150 mM, pH 9.0, 25° C., 3 hours

| Produced peptide | Compound |
| --- | --- |
| 0.3 mM | C[C@@H](O)[C@H](N)C(=O)N[C@@H](CCC(N)=O)C(=O)O [L-Thr-L-Gln] (H-Thr-Gln-OH) |

same assay, conditions: L-amino acid methyl ester hydrochloride 100 mM, 150 mM L-glutamine, pH 9.0, 25° C., 3 hours

| Produced peptide | Compound |
| --- | --- |
| 24.0 mM | NC(=O)CC[C@H](NC(=O)[C@@H](N)CO)C(=O)O [L-Ser-L-Gln] (H-Ser-Gln-OH) |
| 8.4 mM | CC[C@H](C)[C@H](N)C(=O)N[C@@H](CCC(N)=O)C(=O)O [L-Ile-L-Gln] (H-Ile-Gln-OH) |
| 7.1 mM | NC(=O)CC[C@H](NC(=O)[C@@H](N)CCCN=C(N)N)C(=O)O [L-Arg-L-Gln] (H-Arg-Gln-OH) |
| 54.7 mM | NCC(=O)N[C@@H](CCC(N)=O)C(=O)O [Gly-L-Gln] (H-Gly-Gln-OH) |
| 0.3 mM | NC(=O)CC[C@H](NC(=O)[C@@H](N)CCC(N)=O)C(=O)O [L-Gln-L-Gln] (H-Gln-Gln-OH) |
| 81.9 mM | C[C@@H](O)[C@H](N)C(=O)N[C@@H](CCC(N)=O)C(=O)O [L-Thr-L-Gln] (H-Thr-Gln-OH) |
| 2.2 mM | NC(=O)CC[C@H](NC(=O)[C@@H]1CCCN1)C(=O)O [L-Pro-L-Gln] (H-Pro-Gln-OH) |
| 12.0 mM | CSCC[C@H](N)C(=O)N[C@@H](CCC(N)=O)C(=O)O [L-Met-L-Gln] (H-Met-Gln-OH) |

same assay, conditions: L-amino acid methyl ester hydrochloride 100 mM, L-amino acid 150 mM, pH 9.0, 25° C., 3 hours

| Produced peptide | Compound |
| --- | --- |
| 9.8 mM | NCCCC[C@H](NC(=O)CN)C(=O)O [Gly-L-Lys] (H-Gly-Lys-OH) |
| 30.8 mM | CC(C)[C@H](N)C(=O)N[C@@H](CO)C(=O)O [L-Val-L-Ser] (H-Val-Ser-OH) |
| 9.4 mM | C[C@H](NC(=O)[C@@H](N)[C@@H](C)O)C(=O)O [L-Thr-L-Ala] (H-Thr-Ala-OH) |
